Molecular target: T1, alpha-amylase (Homo sapiens, UniProt P0DUB6)
T1 sequence (P0DUB6 16-511): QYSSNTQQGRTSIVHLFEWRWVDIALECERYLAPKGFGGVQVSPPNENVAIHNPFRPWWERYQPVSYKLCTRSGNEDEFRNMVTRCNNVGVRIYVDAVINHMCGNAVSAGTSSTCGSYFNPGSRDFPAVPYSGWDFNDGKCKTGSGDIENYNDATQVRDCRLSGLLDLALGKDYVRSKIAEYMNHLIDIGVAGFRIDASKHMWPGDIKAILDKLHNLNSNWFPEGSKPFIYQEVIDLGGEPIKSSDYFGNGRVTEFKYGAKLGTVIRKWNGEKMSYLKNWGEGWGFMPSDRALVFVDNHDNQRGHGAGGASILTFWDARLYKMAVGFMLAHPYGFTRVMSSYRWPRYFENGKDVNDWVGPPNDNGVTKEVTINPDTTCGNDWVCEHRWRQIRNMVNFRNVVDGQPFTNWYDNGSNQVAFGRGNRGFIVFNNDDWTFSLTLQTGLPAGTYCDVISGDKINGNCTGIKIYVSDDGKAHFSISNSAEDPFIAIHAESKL
Experiment: In vitro inhibition of alpha-amylase (colorimetric, starch to maltose)
Format: biochemical
Settings: read-out: Inhibitory Activity Alpha-amylase
Procedure: The methods for determining enzyme activities are conventional colorimetric methods.
The principle is as follows: • starch is incubated with an enzyme (for example human salivary amylase).

- inhibition at 1000 µg/mL: 93%
Compound: C[C@H]1O[C@H](O[C@H]2[C@H](O)[C@@H](O)[C@@H](O[C@H]3[C@H](O)[C@@H](O)C(O)O[C@@H]3CO)O[C@@H]2CO)[C@H](O)[C@@H](O)[C@@H]1N[C@H]1C=C(CO)[C@@H](O)[C@H](O)[C@H]1O (stereo partly shown) [Glucor ™, Acarbose]
